A word on the solubility: it is how much of the substance goes into solution per volume. As a reminder, the IC50 is the concentration at which inhibition is half-maximal. As a reminder, the Papp A→B is the apparent permeability from the apical to the basolateral side of a cell layer. As a reminder, the bioavailability is dose-corrected exposure relative to a reference, in per cent. High values mean good availability, low ones poor availability. Broadly, the clearance is the volume of plasma or blood freed of the substance per unit of time. A lower clearance goes with a low capacity for elimination. The logD is the decadic logarithm of the distribution of all forms, ionised or not, between an organic phase and buffer at a given pH. Low readings indicate a more hydrophilic compound, high ones a more lipophilic compound. As a reminder, the half-life is the time in which the quantity being followed falls by half. Higher therefore signals slow decline.

The structures appear in SMILES notation. In brackets after ≈: the same amount, converted by molar mass. Activity calls are given as the source filed them. The rule behind the calls is not given here.

This is an account of results in ChEMBL document CHEMBL3217445, “Optimising pharmacokinetics of glucokinase activators with matched triplicate design sets the discovery of AZD3651 and AZD9485” (Medchemcomm, 2013).

In one data set the target is T1, Hexokinase-4 (Homo sapiens, UniProt P35557).
T1 sequence (P35557 whole entry): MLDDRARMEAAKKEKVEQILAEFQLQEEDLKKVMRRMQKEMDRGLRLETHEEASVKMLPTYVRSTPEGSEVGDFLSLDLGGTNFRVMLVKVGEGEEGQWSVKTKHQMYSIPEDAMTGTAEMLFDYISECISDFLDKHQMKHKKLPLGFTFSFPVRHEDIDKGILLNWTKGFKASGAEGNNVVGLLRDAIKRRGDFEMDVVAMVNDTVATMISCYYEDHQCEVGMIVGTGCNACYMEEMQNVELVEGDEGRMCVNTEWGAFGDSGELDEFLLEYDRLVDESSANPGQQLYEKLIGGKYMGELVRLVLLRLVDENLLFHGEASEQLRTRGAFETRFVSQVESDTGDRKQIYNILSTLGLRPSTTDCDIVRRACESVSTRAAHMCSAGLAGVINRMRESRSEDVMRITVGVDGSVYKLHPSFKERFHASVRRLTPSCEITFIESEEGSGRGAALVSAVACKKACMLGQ
The data set can be described thus: Activation of glucokinase (unknown origin).

The nature of data set [1]: Aqueous solubility in PBS buffer at pH 7.4 after 24 hrs by LC-UV analysis. It counts as physicochemical.
Data set [2] has as its target Voltage-gated inwardly rectifying potassium channel KCNH2 (Homo sapiens, UniProt Q12809). The experiment in a line: Inhibition of human ERG by electrophysiological analysis.
Data set [3] in a line: Apparent permeability from apical to basolateral side in MDCK cells. It counts as ADME, cell-based, Canis lupus familiaris. Particulars: dog.
Another data set is filed under the species Canis familiaris. The data set can be described thus: Unbound clearance in dog. It counts as ADME, organism-based, Canis lupus familiaris. Particulars: in vivo.
The nature of data set [4]: Oral bioavailability in dog. It counts as ADME, organism-based, Canis lupus familiaris. The settings on record: in vivo.
A short description of data set [5]: Volume of distribution at steady state in rat. It counts as ADME, organism-based. Particulars: in vivo, read-out: Vdss.
Data set [6] can be described thus: Clearance in dog. It counts as ADME, organism-based, Canis lupus familiaris. Particulars: in vivo.
The nature of data set [7]: Clearance in rat. It counts as ADME, organism-based. The settings on record: in vivo.
Data set [8] can be described thus: Octanol-buffer partition coefficient, log D of the compound at pH 7.4 after 30 mins by shake flask method. It counts as physicochemical.
Data set [9] is filed under the species Rattus norvegicus. The data set can be described thus: Unbound clearance in rat. It counts as ADME, organism-based. Particulars: in vivo.
Data set [10] is described as follows: Oral bioavailability in rat. It counts as ADME, organism-based. The settings on record: in vivo.
Data set [11] in a line: Volume of distribution at steady state in dog. It counts as ADME, organism-based, Canis lupus familiaris. Particulars: in vivo, read-out: Vdss.
The nature of data set [12]: Half life in rat plasma. It counts as ADME, cell-free.
Data set [13] in a line: Half life at pH 6. It counts as physicochemical. Particulars: buffer.
In data set [14] the test system is Rattus norvegicus. The data set can be described thus: Glucose lowering activity in Zucker rat at 3 mg/kg, po after 24 hrs. It counts as functional, organism-based. Set-up: dose 3 mg/kg.
A further data set deals with Hepatocyte. The experiment in a line: Intrinsic clearance in rat hepatocytes measured per […] cells. It counts as ADME, cell-based.

Chain of Voltage-gated inwardly rectifying potassium channel KCNH2 (Q12809 whole entry): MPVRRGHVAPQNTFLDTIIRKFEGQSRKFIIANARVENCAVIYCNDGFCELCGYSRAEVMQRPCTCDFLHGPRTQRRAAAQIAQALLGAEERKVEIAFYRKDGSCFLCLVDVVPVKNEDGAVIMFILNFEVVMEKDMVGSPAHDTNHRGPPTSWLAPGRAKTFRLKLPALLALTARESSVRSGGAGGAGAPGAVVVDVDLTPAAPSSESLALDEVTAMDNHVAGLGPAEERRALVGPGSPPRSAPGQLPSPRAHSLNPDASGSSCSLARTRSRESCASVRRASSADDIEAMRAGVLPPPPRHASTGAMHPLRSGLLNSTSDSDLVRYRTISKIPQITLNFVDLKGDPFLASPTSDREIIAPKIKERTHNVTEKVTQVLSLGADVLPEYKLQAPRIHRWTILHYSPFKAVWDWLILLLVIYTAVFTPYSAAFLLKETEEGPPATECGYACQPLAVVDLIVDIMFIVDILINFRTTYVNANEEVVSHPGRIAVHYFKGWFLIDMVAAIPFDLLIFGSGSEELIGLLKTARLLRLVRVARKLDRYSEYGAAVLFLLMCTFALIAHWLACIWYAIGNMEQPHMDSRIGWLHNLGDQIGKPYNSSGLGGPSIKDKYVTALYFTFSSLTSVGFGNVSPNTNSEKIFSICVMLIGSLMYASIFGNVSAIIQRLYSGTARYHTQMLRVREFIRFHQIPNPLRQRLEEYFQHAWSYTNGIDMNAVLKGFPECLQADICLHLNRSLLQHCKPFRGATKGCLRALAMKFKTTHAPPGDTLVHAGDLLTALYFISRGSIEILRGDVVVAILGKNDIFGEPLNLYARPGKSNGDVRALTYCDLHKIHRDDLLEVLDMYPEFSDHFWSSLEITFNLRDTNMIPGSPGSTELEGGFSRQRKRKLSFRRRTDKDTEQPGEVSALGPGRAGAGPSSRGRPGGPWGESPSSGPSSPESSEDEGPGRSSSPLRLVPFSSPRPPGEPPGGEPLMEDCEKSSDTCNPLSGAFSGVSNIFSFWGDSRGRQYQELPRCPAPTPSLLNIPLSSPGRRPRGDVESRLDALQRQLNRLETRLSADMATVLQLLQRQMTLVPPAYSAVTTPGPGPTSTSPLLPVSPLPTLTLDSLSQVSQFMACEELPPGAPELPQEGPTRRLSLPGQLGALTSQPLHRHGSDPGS

Take `Cc1cnc(NC(=O)[C@H](CN2CC(O)C2)Oc2ncnc3c2cnn3-c2c(Cl)cccc2Cl)cn1`: the EC50 at Hexokinase-4 (read-out: EC50) was determined as 96 nM. The compound also had a solubility at 24 h in [1] above 750 µM. In [2], this compound gave an IC50 of 62 µM. Moreover, the Papp A→B in data set [3] came out at 3.5 ×10⁻⁶ cm/s. For the same compound, the results for the CL free in the data set listed under Canis familiaris and in the data set listed under Rattus norvegicus [9] were 60 mL/min/kg and 74 mL/min/kg, respectively. Also, the bioavailability worked out at 87% in data set [4] and 38% in data set [10]. Besides, the Vd stood at 1.2 L/kg in data set [5] and 1.1 L/kg in data set [11]. The results for the clearance in data set [6] and in [7] were 18 mL/min/kg and 225 mL/min/kg, respectively. In [8], the logD at 0.5 h is 2.3.

As for `C[C@H](CO)OC[C@H](Oc1ncnc2c1cnn2-c1ncccc1Cl)C(=O)Nc1ccc(F)cn1`, the EC50 on Hexokinase-4 (read-out: pEC50 (converted)) was 794 nM. Moreover, in data set [2], the IC50 was above 100 µM. For the same compound, the half-life in [12] is 16 min; in [13], above 23 days. Moreover, the clearance in [7] came out at 43 mL/min/kg. Also, in [8], the logD at 0.5 h was 1.7. This compound also yielded a CL free in the data set filed under Rattus norvegicus [9] of 98 mL/min/kg.

On to `C[C@H](CO)OC[C@H](Oc1ncnc2c1cnn2-c1ncccc1Cl)C(=O)Nc1ccc(Cl)cn1`, for which, on Hexokinase-4 (read-out: pEC50 (converted)), the EC50 is 398 nM. In addition, the values for the half-life in data set [12] and in [13] were 19 min and above 23 days, respectively. This compound also displayed a clearance in data set [7] of 50 mL/min/kg. The logD at 0.5 h in data set [8] worked out at 2.3. The same compound returned a CL free in the data set listed under Rattus norvegicus [9] of 190 mL/min/kg.

Consider `O=C(Nc1ccc(F)cn1)[C@H](CN1CC(O)C1)Oc1ncnc2c1cnn2-c1c(Cl)cccc1Cl`, for which the EC50 at Hexokinase-4 (read-out: EC50) is 49 nM. This compound also displayed a solubility at 24 h in data set [1] of 80 µM (≈ 41.5 µg/mL). For the same compound, the outcome with Rattus norvegicus [14] was Active. For the same compound, the Papp A→B in data set [3] is 7.3 ×10⁻⁶ cm/s. The CL free in the data set filed under Canis familiaris worked out at 210 mL/min/kg; in the data set listed under Rattus norvegicus [9] it was 320 mL/min/kg. For the same compound, the bioavailability in data set [4] turned out to be 32%; in data set [10], 28%. The Vd was determined as 1.7 L/kg in data set [5] and 1.1 L/kg in [11]. In addition, the clearance in [6] is 30 mL/min/kg; in data set [7], 42 mL/min/kg. In addition, the logD at 0.5 h in [8] was 2.7.

In the case of `O=C(Nc1ccc(F)cn1)[C@H](CN1CC(O)C1)Oc1ncnc2c1cnn2-c1ccccc1Cl`, the EC50 at Hexokinase-4 (read-out: EC50) was found to be 78 nM. The solubility at 24 h in data set [1] is above 750 µM. Moreover, in the data set on Rattus norvegicus [14], the outcome was Active. This compound also gave an IC50 in [2] of 36 µM. For the same compound, the Papp A→B in data set [3] is 9.8 ×10⁻⁶ cm/s. For the same compound, the results for the CL free in the data set filed under Canis familiaris and in the data set listed under Rattus norvegicus [9] were 170 mL/min/kg and 90 mL/min/kg, respectively. Moreover, the bioavailability was found to be 12% in data set [4] and 75% in data set [10]. Moreover, the Vd in data set [5] and in [11] was 1.5 L/kg in each case. The clearance was determined as 51 mL/min/kg in [6] and 31 mL/min/kg in data set [7]. The compound further had a logD at 0.5 h in data set [8] of 2.3.

In the case of `COC[C@H](Oc1ncnc2c1cnn2-c1ncccc1Cl)C(=O)Nc1ccc(C)cn1`, the CLint in the data set with Hepatocyte is below 2 µL/min/1e6 cells. The compound further had a half-life in [12] above 300 min.

In the data set on Hepatocyte, `Cc1ccc(NC(=O)[C@H](COC(C)C)Oc2ncnc3c2cnn3-c2ncccc2Cl)nc1` yielded a CLint of 66 µL/min/1e6 cells. The compound further registered a half-life in [12] of 17 min. The same compound came in with a CL free in the data set filed under Rattus norvegicus [9] of 390 mL/min/kg.

With `Cc1ccc(NC(=O)[C@H](COC2CCC2)Oc2ncnc3c2cnn3-c2ncccc2Cl)nc1`, the CLint in the data set with Hepatocyte is 130 µL/min/1e6 cells. Further, in data set [12], the half-life turned out to be 10 min. In addition, the CL free in the data set listed under Rattus norvegicus [9] was 1500 mL/min/kg.

As for `Cc1cnc(NC(=O)[C@H](CO[C@H](C)CO)Oc2ncnc3c2cnn3-c2c(Cl)cccc2C#N)cn1`, the EC50 at Hexokinase-4 (read-out: EC50) turned out to be 78 nM. For the same compound, in data set [1], the solubility at 24 h is above 50 µM. In data set [2], this compound returned a half-maximal inhibitory concentration (IC50) above 100 µM. For the same compound, the Papp A→B in data set [3] was 7.8 ×10⁻⁶ cm/s. Besides, the CL free in the data set filed under Canis familiaris was 49 mL/min/kg; in the data set listed under Rattus norvegicus [9], 39 mL/min/kg. The bioavailability came to 43% in data set [4] and 100% in data set [10]. Moreover, the Vd in data set [5] came out at 1.5 L/kg; in data set [11], 0.9 L/kg. In addition, the clearance in [6] and in [7] was 18 mL/min/kg in each case. For the same compound, the logD at 0.5 h in data set [8] is 1.9.

`CCOC[C@H](Oc1ncnc2c1cnn2-c1ncccc1Cl)C(=O)Nc1ccc(C)cn1`: in the data set with Hepatocyte, the CLint amounted to 12 µL/min/1e6 cells. The half-life in data set [12] amounted to 37 min. The CL free in the data set listed under Rattus norvegicus [9] was determined as 340 mL/min/kg.
